Reference: the NIST ThermoML archive (doi:10.1021/acs.jced.8b00008)

Experiment: xn = mol fraction of the nth substance listed
Details: for surface tension liquid-gas: 293 K, Pendant drop shape; for viscosity / speed of sound / mass density: 102 kPa, Liquid; for viscosity: Concentric cylinders viscometry; for speed of sound: Single path-length method; for mass density: Vibrating tube method

CCCCCCCCCCCCCCCC [hexadecane] + CC1CCCCC1
Details	surface tension liquid-gas [mN/m]
x2 = 0.1018	26.8
x2 = 0.2	26.7
x2 = 0.3	26.4
x2 = 0.4004	26.2
x2 = 0.4999	26
x2 = 0.6	25.5
x2 = 0.7	25.2
x2 = 0.8	24.7
x2 = 0.9	24.3

Details	mass density [kg/m3]	speed of sound [m/s]	viscosity [mPa·s]
293.15 K, x2 = 0.1018	773	1350.5	3.14
293.15 K, x2 = 0.2	772.68	1343.5	2.83
293.15 K, x2 = 0.3	772.21	1334.5	2.54
293.15 K, x2 = 0.4004	771.85	1325.6	2.24
293.15 K, x2 = 0.4999	771.43	1316.2	1.96
293.15 K, x2 = 0.6	770.99	1303.5	1.68
293.15 K, x2 = 0.7	770.52	1289.9	1.42
293.15 K, x2 = 0.8	770.06	1274.4	1.174
293.15 K, x2 = 0.9	769.64	1256.8	0.943
298.15 K, x2 = 0.1018	769.51	1331.5	2.81
298.15 K, x2 = 0.2	769.17	1324.6	2.54
298.15 K, x2 = 0.3	768.68	1315.4	2.29
298.15 K, x2 = 0.4004	768.28	1306.5	2.03
298.15 K, x2 = 0.4999	767.82	1297.4	1.79
298.15 K, x2 = 0.6	767.29	1284.3	1.54
298.15 K, x2 = 0.7	766.75	1270.5	1.31
298.15 K, x2 = 0.8	766.16	1254.1	1.084
298.15 K, x2 = 0.9	765.56	1236	0.892
303.15 K, x2 = 0.1018	766.03	1312.7	2.52
303.15 K, x2 = 0.2	765.67	1306	2.29
303.15 K, x2 = 0.3	765.15	1296.5	2.08
303.15 K, x2 = 0.4004	764.7	1287.5	1.85
303.15 K, x2 = 0.4999	764.21	1278.4	1.65
303.15 K, x2 = 0.6	763.6	1265	1.43
303.15 K, x2 = 0.7	762.96	1250.9	1.22
303.15 K, x2 = 0.8	762.24	1233.9	1.012
303.15 K, x2 = 0.9	761.47	1215.2	0.82
313.15 K, x2 = 0.1018	759.08	1275.9	2.06
313.15 K, x2 = 0.2	758.66	1269.1	1.89
313.15 K, x2 = 0.3	758.08	1259.4	1.72
313.15 K, x2 = 0.4004	757.54	1250.2	1.55
313.15 K, x2 = 0.4999	756.95	1240.7	1.38
313.15 K, x2 = 0.6	756.18	1226.9	1.2
313.15 K, x2 = 0.7	755.37	1212.1	1.03
313.15 K, x2 = 0.8	754.38	1194.1	0.906
313.15 K, x2 = 0.9	753.24	1174.1	0.739
323.15 K, x2 = 0.1018	752.12	1239.9	1.72
323.15 K, x2 = 0.2	751.64	1233	1.58
323.15 K, x2 = 0.3	751	1223	1.45
323.15 K, x2 = 0.4004	750.36	1213.5	1.31
323.15 K, x2 = 0.4999	749.66	1203.7	1.2
323.15 K, x2 = 0.6	748.73	1189.3	1.05
323.15 K, x2 = 0.7	747.73	1173.8	0.91
323.15 K, x2 = 0.8	746.47	1154.9	0.768
323.15 K, x2 = 0.9	744.96	1133.7	0.629
333.15 K, x2 = 0.1018	745.15	1204.9	1.46
333.15 K, x2 = 0.2	744.61	1197.7	1.35
333.15 K, x2 = 0.3	743.89	1187.7	1.24
333.15 K, x2 = 0.4004	743.16	1177.8	1.16
333.15 K, x2 = 0.4999	742.34	1167.2	1.04
333.15 K, x2 = 0.6	741.25	1152.3	0.924
333.15 K, x2 = 0.7	740.03	1136	0.801
333.15 K, x2 = 0.8	738.5	1116.2	0.68
333.15 K, x2 = 0.9	736.61	1094.2	0.558

CC1CCCCC1 [methylcyclohexane] + CCCCCCCCCCCC
Details	surface tension liquid-gas [mN/m]
x1 = 0.1	24.86
x1 = 0.2001	24.84
x1 = 0.3	24.76
x1 = 0.4001	24.73
x1 = 0.5	24.5
x1 = 0.5999	24.34
x1 = 0.7	24.25
x1 = 0.7999	24.11
x1 = 0.9	23.95

Details	mass density [kg/m3]	speed of sound [m/s]	viscosity [mPa·s]
293.15 K, x1 = 0.1	749.76	1293.1	1.41
293.15 K, x1 = 0.2001	750.92	1288.3	1.34
293.15 K, x1 = 0.3	752.24	1283.1	1.26
293.15 K, x1 = 0.4001	753.73	1277.5	1.18
293.15 K, x1 = 0.5	755.42	1271.7	1.11
293.15 K, x1 = 0.5999	757.37	1265.3	1.03
293.15 K, x1 = 0.7	759.54	1258.9	0.95
293.15 K, x1 = 0.7999	762.21	1251.8	0.875
293.15 K, x1 = 0.9	765.42	1244.3	0.798
298.15 K, x1 = 0.1	746.11	1273.6	1.29
298.15 K, x1 = 0.2001	747.24	1268.7	1.23
298.15 K, x1 = 0.3	748.53	1263.4	1.16
298.15 K, x1 = 0.4001	749.97	1257.7	1.09
298.15 K, x1 = 0.5	751.63	1251.7	1.04
298.15 K, x1 = 0.5999	753.5	1245	0.968
298.15 K, x1 = 0.7	755.59	1238.2	0.898
298.15 K, x1 = 0.7999	758.17	1230.8	0.828
298.15 K, x1 = 0.9	761.26	1222.7	0.755
303.15 K, x1 = 0.1	742.46	1254.3	1.2
303.15 K, x1 = 0.2001	743.56	1249.3	1.14
303.15 K, x1 = 0.3	744.81	1243.9	1.08
303.15 K, x1 = 0.4001	746.21	1238	1.02
303.15 K, x1 = 0.5	747.8	1231.9	0.959
303.15 K, x1 = 0.5999	749.62	1224.8	0.889
303.15 K, x1 = 0.7	751.64	1217.8	0.826
303.15 K, x1 = 0.7999	754.12	1209.9	0.762
303.15 K, x1 = 0.9	757.08	1201.4	0.696
313.15 K, x1 = 0.1	735.13	1216.3	1.01
313.15 K, x1 = 0.2001	736.17	1211.1	0.965
313.15 K, x1 = 0.3	737.34	1205.4	0.916
313.15 K, x1 = 0.4001	738.65	1199.2	0.871
313.15 K, x1 = 0.5	740.13	1192.9	0.858
313.15 K, x1 = 0.5999	741.83	1185.2	0.8
313.15 K, x1 = 0.7	743.69	1177.6	0.744
313.15 K, x1 = 0.7999	745.98	1169	0.689
313.15 K, x1 = 0.9	748.69	1159.5	0.63
323.15 K, x1 = 0.1	727.76	1178.9	0.892
323.15 K, x1 = 0.2001	728.74	1173.5	0.852
323.15 K, x1 = 0.3	729.83	1167.6	0.813
323.15 K, x1 = 0.4001	731.05	1161.1	0.774
323.15 K, x1 = 0.5	732.41	1154.4	0.732
323.15 K, x1 = 0.5999	733.97	1146.3	0.681
323.15 K, x1 = 0.7	735.69	1138.2	0.634
323.15 K, x1 = 0.7999	737.77	1128.8	0.589
323.15 K, x1 = 0.9	740.22	1118.3	0.538
333.15 K, x1 = 0.1	720.35	1142.5	0.783
333.15 K, x1 = 0.2001	721.26	1137	0.752
333.15 K, x1 = 0.3	722.26	1130.7	0.716
333.15 K, x1 = 0.4001	723.38	1124	0.692
333.15 K, x1 = 0.5	724.63	1116.6	0.641
333.15 K, x1 = 0.5999	726.06	1108.3	0.606
333.15 K, x1 = 0.7	727.61	1099.9	0.564
333.15 K, x1 = 0.7999	729.48	1089.6	0.527
333.15 K, x1 = 0.9	731.68	1078.2	0.48
